Assay results taken from US20220117879A1, “PHOTO-PROTECTIVE PLANT-DERIVED COMPOSITION” (Ariel Scientific Innovations Ltd., priority 2019, published 2022).

Columns and labels:
[1] = SPF (sun protection factor) calculated from UV absorption spectra with the Mansur equation; assay type: physicochemical; conditions: 0.01 mg/ml
Protocol: Absorption spectra were used to calculate SPF (sun protection factor) values using the Mansur equation, according to procedures described by Dutra et al. [Braz J Pharma Sci 2004, 40:381-385], using OptLabTM X software ([…] order to investigate UVB blocking properties of various plants, a large-scale screening of traditionally-used herbs which grow in the Judean Desert was performed. The leaves, twigs, branches, fruits, and roots of each tested plant were collected, dried, ground and extracted separately in ethanol, water, chloroform or propylene glycol methyl ether acetate (PMA) using a Soxhlet system.

[2] = Photostability of SH-401 films on PMMA slides exposed to UV radiation, SPF versus time; assay type: physicochemical; conditions: film on PMMA slide, 12 hours of exposure to UV radiation (FIG. 7)
Protocol: In order to evaluate photostability, uniform films of pure SH-401 were prepared on PMMA (polymethyl methacrylate) slides by depositing 2 ml of […] solution on the slides and evaporating the solvent. The samples were then exposed to UV radiation for various time intervals, ranging up to 25 hours. The glass plates were then immersed in a mixture of ethanol/water (2:98% v/v) and the films were dissolved ultrasonically. The UV samples were then quantified by UV-visible absorption spectroscopy and the SPF value was determined according to procedures described hereinabove and plotted as a function of time.

human skin explants [3] = experiment: Epidermal cell viability in human skin explants, MTT assay; assay type: cell-based; conditions: topical application, entire concentration range tested (up to maximal solubility) (FIG. 8A)
From the text: (§1) Skins were obtained with permission from 30-60 year-old healthy women undergoing aesthetic abdomen surgery, after signing an informed consent. A mechanical skin press was used to section the skin to 0.8×0.8 cm^2 pieces, according to procedures described in Portugal-Cohen et al. [Exp Dermatol 2011, 20:749-755]. The skin explants were maintained in an air/liquid interface, dermal side submerged in the medium, according to procedures described in Portugal-Cohen et al. [Exp Dermatol 2011, 20:749-755] and Cohen et al. [Dead Sea and Arava Studies 2015, 7:66-74]. The human skin explants were laid in 6-well culture plates containing DMEM (Dulbecco's modified Eagle medium) supplemented with 100 units/ml penicillin and 100 μg/ml streptomycin), dermal side down in the medium and epidermis up. All samples were used after an overnight recovery.
In order to investigate the safety and efficacy of the active compound SH-401 (isolated as described in Example 2), several experiments were performed on human skin explants, according to procedures described in the Materials and Methods section hereinabove.

human skin explants [4] = experiment: UVB-induced apoptosis in epidermis of human skin explants, caspase-3 activation assay; assay type: cell-based; conditions: 24 hours after UVB 350 mJ/cm^2; 0.02-2 μg/cm^2; comparable to Ultrasol SPF 30 formulation (FIG. 8B)
From the text: as §1

TNFα = experiment: UVB-induced TNFα hypersecretion in human skin explants, ELISA; assay type: cell-based; conditions: 24 hours after UVB 350 mJ/cm^2; 0.02-2 μg/cm^2; comparable to Ultrasol SPF 30 formulation (FIG. 8C)
From the text: as §1

human skin explants [5] = experiment: UVB-induced ROS generation in skin explants, DCFDA assay; assay type: cell-based; conditions: 0.02-2 μg/cm^2, with UVB (FIG. 9)
From the text: as §1
(§2) A common feature of UVB-induced damage is the generation of ROS (reactive oxygen species), which increases DNA damage, amplifies the generation of lipid peroxidation and hampers proteins and membranes within the cells [Schuch et al., Free Rad Biol Med 2017, 107:110-124]. […] ROS generation upon UVB radiation was evaluated in skin explants both by DCFDA (dichlorofluorescin diacetate) assay, as well as by measuring lipid peroxidation (by ELISA), which is associated with ROS generation.

human skin explants [6] = experiment: UVB-induced lipid peroxidation (MDA) in skin explants, ELISA; assay type: cell-based; conditions: 0.02-2 μg/cm^2, with UVB (FIG. 10)
From the text: as §1, §2

[7] = Antioxidant capacity by DPPH colour shift, Trolox equivalents; conditions: 1 weight percent solution (FIG. 11)
From the text: Antioxidant capacity was further evaluated using the DPPH (diphenylpicrylhydrazyl) method. The color shift of DPPH in the presence of SH-401 and converted to units of Trolox (6-hydroxy-2,5,7,8-tetramethylchroman-2-carboxylic acid) equivalent antioxidant capacity based on a calibration curve.

human skin explants [8] = experiment: DNA fragmentation in epidermis cells of skin explants, COMET assay; assay type: cell-based; conditions: UVB 350 mJ/cm^2, 2 μg/cm^2 (FIG. 12)
From the text: as §1

human skin explants [9] = experiment: Cyclobutane pyrimidine dimers (CPD) in epidermis cells from skin explants, ELISA; assay type: cell-based; conditions: UVB 350 mJ/cm^2, 0.01-2 μg/cm^2 (FIG. 13)
From the text: as §1

human skin explants [10] = experiment: Histological examination of UVB-irradiated skin explants; assay type: cell-based; conditions: UVB 350 mJ/cm^2 (FIGS. 14A-14D)
From the text: as §1

pro-collagen = experiment: Pro-collagen level in UVB-irradiated skin explants, ELISA; assay type: cell-based, human; conditions: following UVB radiation (FIG. 15A)
From the text: as §1

[11] = system: matrix metalloproteinase-1 (MMP1); experiment: MMP1 in UVB-irradiated skin explants, ELISA; assay type: cell-based, human; conditions: following UVB radiation (FIG. 15B)
From the text: as §1

HaCaT cells = experiment: Wound closure in confluent HaCaT cell in vitro model; assay type: cell-based; conditions: confluent HaCaT cells with induced wound, 24 hours (FIG. 16)
Protocol: The effect of SH-401 on wound healing in skin was assessed using a confluent HaCaT cell in vitro model of wound closure.

1,2,3,4,6-pentagalloyl-β-D-glucose [SH-401]
increase of SPF value relative to the crude extract [1]: more than 10 fold | stability towards UV radiation (change in SPF value) [2]: essentially no change in SPF value | skin viability (MTT) (human skin explants [3]): did not compromise skin viability | UVB-induced apoptosis in the epidermis (caspase-3 activation) (human skin explants [4]): attenuated | UVB-induced TNFα hypersecretion (TNFα): attenuated | UVB-induced ROS generation (DCFDA) (human skin explants [5]): attenuated | UVB-induced lipid peroxidation (MDA) (human skin explants [6]): attenuated | Trolox equivalent antioxidant capacity (DPPH) [7]: approximately 2,310 micromole Trolox equivalent (TE) units per 100 grams | UVB-induced DNA damage (COMET) (human skin explants [8]): attenuated | UVB-induced formation of cyclobutane pyrimidine dimers (CPD) (human skin explants [9]): reduced | UVB-induced pyknotic sunburn cells and reduction of the epidermal layer (histology) (human skin explants [10]): reversed this deleterious effect of the radiation | collagen synthesis (pro-collagen) (pro-collagen): enhanced | MMP1 activity [11]: reduced | wound closure (HaCaT cells): enhanced wound closure
